Tests used:
Assay type in all cases: ADME, organism-based
[1] = Apparent elimination half life in Rattus norvegicus Sprague-Dawley (rat) at 50 mg/kg, po; parameters: dose 50 mg/kg, route oral; conditions: in vivo, read-out: betat1/2(app) (converted)
[2] = Apparent elimination half life in Rattus norvegicus Sprague-Dawley (rat) at 5 mg/kg, iv; parameters: dose 5 mg/kg, route intravenous; conditions: in vivo, read-out: betat1/2(app) (converted)
[3] = Total clearance in Rattus norvegicus Sprague-Dawley (rat) at 5 mg/kg, iv; parameters: dose 5 mg/kg, route intravenous; conditions: in vivo
[4] = Apparent volume of distribution in Rattus norvegicus Sprague-Dawley (rat) at 5 mg/kg, iv; parameters: dose 5 mg/kg, route intravenous; conditions: in vivo, read-out: Vd(app)

COc1ccc(-c2coc3cc(O)cc(O)c3c2=O)cc1 [BIOCHANIN]
half-life [1]: 13.7 h | half-life [2]: 1 h | clearance [3]: 262 mL/min/kg | Vd [4]: 10.6 L/kg

Source: ChEMBL document CHEMBL3045077, “Intravenous pharmacokinetics and oral bioavailability of biochanin A in female rats” (Med Chem Res, 2011)
